Assay results from patent US9388215B2, “Compositions and methods of using islet neogenesis peptides and analogs thereof” (SHENZHEN HIGHTIDE BIOPHARMACEUTICAL, LTD., priority 2013, dated 2016).
Read-outs that look alike come from different tables or passages of the source.

Legend:
[1] = Peptide stability in rat plasma; assay type: in vitro ADME; details: 100 μg/mL, 37° C.; FIG. 12, 13
Experimental: (§1) The stability of peptides was also tested in rat, mouse and human plasma. Briefly, a certain amount of peptides and eucatropine powder (positive control) was accurately weighed. Test compounds were dissolved in 50% methanol-water solution and diluted to 20 mg/mL, and eucatropine was dissolved in dimethylsulfoxide (DMSO) and diluted to 10 mM, as a stock solution. Eucatropine stock solution was diluted to 0.2 mM with DMSO as a working solution. A stop reagent was prepared containing 200 ng/mL midazolam and tolbutamide in acetonitrile. A volume of 300 μL of stop solution was added to each well of a 96-well deep-well plate placed on ice beforehand.
(§2) For the stability studies, peptides and eucatropine were spiked into plasma respectively, mixed well, and then 100 μL of each mixture solution was transferred into the pre-cooled stop reagent as 0 time point sample. The remaining mixtures were incubated in a 37° C. water bath with shaking at 100 rpm (n=2). The final incubation concentration was 1 μM for eucatropine and 100 μg/mL for all test compounds.
(§3) At desired time points, 100 μL of incubation mixture was transferred to the stop reagent to precipitate proteins. Samples were vortexed and centrifuged at RCF 5000×g for 10 minutes, and supernatant was transferred to a test plate. The samples were analyzed by LC-MS/MS.
(§4) Slope was calculated by plotting the natural logarithm of the percentage of remaining amount of test compounds and time, and T1/2 was calculated in accordance with the following formula.
For stability in rat plasma, the incubation time was 0, 15, 30, 60 and 120 min for Peptide 1 and eucatropine, and 0, 15, 30, 60, 120, and 240 min for Peptide 12, Peptide 16, Peptide 29 and Peptide 31.
In another stability study in rat plasma, the incubation time was 0, 30, 60 120 and 240 min for Peptide 2, Peptide 52, Peptide 64 and eucatropine.

[2] = Peptide stability in human plasma; assay type: in vitro ADME; details: 100 μg/mL, 37° C.; FIG. 4, 15
Experimental: as §1, with “in” for “in rat,”
as §2, with “[…]” for “1 μM”
as §3, §4
For stability in human plasma, the incubation time was 0, 30, 60 and 120 min for Peptide 1, Peptide 12, Peptide 16 and eucatropine.
as §1, with “A stop reagent was prepared containing 200 ng/mL midazolam and tolbutamide in acetonitrile. A volume of 300 μL of stop solution was added to each well of a 96-well deep-well plate placed on ice beforehand.” left out

[3] = Peptide concentration in plasma and pancreas 30 min post dose; assay type: in vivo, rat; details: male SD rats, sc bolus 25 mg/kg, 30 min post-dose; for level at 0.5 h: male, Sprague-Dawley, rat, sc, 25 mg/kg
Experimental: To further characterize the pharmacokinetic (PK) properties of peptides, peptide concentration in pancreas—the target organ, was determined 30 min post dose. Briefly, INGAP-PP (Peptide 1), Peptide 12, or Peptide 31 was dissolved in sterile normal saline and then was administered via subcutaneous (sc) bolus at the dose level of 25 mg/kg to male Sprague-Dawley (SD) rats. Five animals in each group were used for blood and pancreas collection at the time point of 30 min post-dose. Blood samples (approximately 400 μL) were collected and placed into tubes containing EDTA-K2 and centrifuged at 8000 rpm for 6 minutes at 4° C. to separate plasma from the samples. After blood extraction and animal sacrifice, the pancreas was removed immediately from each animal, cleared of fat and lymph nodes, weighed, and placed into 5 fold volume of ice cold sterile normal saline with protease inhibitor cocktail (Merck Millipore, catalogue #539137) to homogenize with a homogenizer.
The peptide concentration of the plasma and pancreatic homogenate was determined immediately using tandem mass spectrometry (LC-MS/MS) analysis and the results are presented in Table 8.

[4] = Pharmacokinetics in rat, intravenous bolus; assay type: in vivo; details: male, Sprague-Dawley, plasma, RAT (IV), 25 mg/kg; for AUC(0-t): read-out: AUC(0-t); for AUC(0-inf): read-out: AUC(0-∞); for Cmax: read-out: Cmax
Experimental: (§5) After 7 days acclimation, male Sprague-Dawley (SD) rats weighing 210-250 g, or male C57BL/6 mice, weighing 19-24 g, in good health were used in the study. Peptide 1, Peptide 12 and Peptide 16 were dissolved in sterile normal saline and then they were injected via subcutaneous (sc) bolus or intravenous (iv) bolus at the dose level of 25 mg/kg. Three animals in each group were used for blood collection at the time point of 5 min, 15 min, 30 min, 1 h, 2 h, 4 h, 6 h, 8 h and 24 h post-dose. Blood samples (approximately 400 μL) were collected and placed into tubes containing EDTA-K2 and centrifuged at 8000 rpm for 6 minutes at 4° C. to separate plasma from the samples. The resulting plasma was stored frozen at −80° C. until being analyzed. Plasma concentrations of peptides were determined using tandem mass spectrometry (LC-MS/MS) analysis. A non-compartmental module of WinNonlin® Professional 5.2 (Pharsight; St. Louis Mo.), was used to calculate PK parameters. The abbreviation AUC(0-t) represents area under the curve from the time of dosing to the time of the last observation, the AUC(0-∞) represents area under the curve from the time of dosing to infinity, and the Cmax represents maximum concentration detected.

[5] = Pharmacokinetics in mouse, subcutaneous bolus; assay type: in vivo; details: male, C57BL/6, plasma, MOUSE (SC), 25 mg/kg; for AUC(0-t): read-out: AUC(0-t); for AUC(0-inf): read-out: AUC(0-∞); for Cmax: read-out: Cmax
Experimental: as §5

[6] = Pharmacokinetics in rat, subcutaneous bolus (Example VII); assay type: in vivo; details: male, Sprague-Dawley, plasma, RAT (SC), 25 mg/kg; for AUC(0-t): read-out: AUC(0-t); for AUC(0-inf): read-out: AUC(0-∞); for Cmax: read-out: Cmax
Experimental: as §5

[7] = plasma, read-out: Peptide concentration, Plasma

Row | level at 0.5 h ([3]; pancreas (homogenate), pancreatic homogenate, read-out: Peptide concentration, Pancreas) | level at 0.5 h [3, 7] | AUC(0-t) [4] | AUC(0-inf) [4] | Cmax [4] | AUC(0-t) [5] | AUC(0-inf) [5] | Cmax [5] | AUC(0-t) [6] | AUC(0-inf) [6] | Cmax [6] | Substance | stability in rat plasma [1] | stability in human plasma [2] | Peptide concentration, Pancreas ([3]; pancreatic homogenate)
1 | 1630 ± 340 ng/mL | 15400 ± 3520 ng/mL | – | – | – | – | – | – | – | – | – | Ac-IGLHDPSHGTLPNGS-NH2 [Peptide 31, Ac-IGLHDPSHGTLPNGS-NH2] | exhibited good stability in rat plasma and were more stable than INGAP-PP | exhibited good stability in human plasma and were significantly more stable than INGAP-PP | –
2 | – | – | 12200 ng·h/mL | 12200 ng·h/mL | 45200 ng/mL | 11400 ng·h/mL | 11400 ng·h/mL | 14400 ng/mL | 12100 ng·h/mL | 12200 ng·h/mL | 18900 ng/mL | Ac-IGLHDPSHGTLPNGS-OH [Peptide 16, Ac-IGLHDPSHGTLPNGS-OH] | exhibited good stability in rat plasma and were more stable than INGAP-PP | exhibited good stability in human plasma and were significantly more stable than INGAP-PP | –
3 | – | 210 ± 107 ng/mL | 21.9 ng·h/mL | 27.1 ng·h/mL | 48.7 ng/mL | 54.5 ng·h/mL | 58.3 ng·h/mL | 141 ng/mL | 298 ng·h/mL | 305 ng·h/mL | 1240 ng/mL | H-IGLHDPSHGTLPNGS-OH [Peptide 1, H-IGLHDPSHGTLPNGS-OH, reference compound] | – | – | NA (Below the lower limit of quantitation (LLOQ) 2.5 ng/mL)
